The nature of data set [1]: Kinetic solubility, laser nephelometry. The data set is classed as physicochemical. The note with it: for solubility kinetic: aqueous phosphate buffer, aqueous buffer, kinetic from dmso stock, phosphate buffer pH 7.4, nephelometry, mean value and range, read-out: Sexp., kin., pH 7.4 (kinetic solubility). How it is done: The kinetic solubility was determined using laser nephelometry. A stock solution based on the results of the thermodynamic solubility measurement of the test compounds in DMSO was prepared. The stock solution was diluted with DMSO to get different concentrations. The DMSO dilutions (5 µL) were placed on a 96-well plate filled with aqueous phosphate buffer pH 7.4 (195 µL, same buffer as for thermodynamic solubility). Two dilution series of the stock solution were measured. A blank was determined for every measurement. The well plate was scanned by a nephelometer (Nephelostar Plus, BMG Labtech, Ortenberg, Germany). Precipitated particles scatter the laser light which is detected by the nephelometer. The intensity of the scattered light is assumed to be proportional to the particle concentration in the suspension. The different concentrations were plotted versus the intensities measured by the nephelometer. The resulting kick-off curves led directly to the kinetic solubility by determining the intersection of the linear straight line paralleling the x axis and the linear slope.

The next data set concerns the target RnDYRK1A-kd (Rattus norvegicus, UniProt Q63470). The experiment in a line: ADP-Glo luminescent kinase assay. The data set is classed as biochemical, Rn. The note with it: for DYRK1A inhibitory activity (in words): ADP-Glo assay. How it is done:
(§1) Protein kinase assays with the derivatives 11–15 were carried out by radiometric methods using protein kinases, reagents, and conditions as described before. The DYRK1A inhibitory activities of the Mannich bases 16, 27 and 28 were assayed in 384-well plates using the ADP-GloTM assay kit (Promega, Madison, WI) according to the recommendations of the manufacturer. This assay is a luminescent ADP detection assay that provides a homogeneous and high-throughput screening method to measure kinase activity by quantifying the amount of ADP produced during a kinase reaction. Briefly, the reactions were carried out in a final volume of 6 µL for 30 min at 30 °C in appropriate kinase buffer, with either protein or peptide as substrate in the presence of 10 µM ATP. After that, 6 µL of ADP-GloTM Kinase Reagent was added to stop the kinase reaction. After an incubation time of 50 min at room temperature (rt), 12 µL of Kinase Detection Reagent was added for one hour at rt. The transmitted signal was measured using the Envision (PerkinElmer, Waltham, MA) microplate luminometer and expressed in Relative Light Units (RLU). In order to determine the half maximal inhibitory concentration (IC50), the assays were performed in duplicate in the absence or presence of increasing doses of the tested compounds. Kinase activities are expressed in % of maximal activity, i.e. measured in the absence of inhibitor. The peptide substrate was obtained from Proteogenix (Schiltigheim, France). RnDYRK1A-kd was assayed in buffer A with 0.033 μg/µl of the peptide […] as substrate (buffer A: 10 mM MgCl2, 1 mM EGTA, 1 mM DTT, 25 mM Tris-HCl pH 7.5, 50 µg/mL heparin). All data points for construction of dose response curves were recorded in triplicate. Typically, the standard deviation of single data points was below 10%.
A general note: In ADP-Glo the light output rises with the ADP produced.

Data set [2] can be described thus: Thermodynamic solubility, shake-flask method with HPLC. The data set is classed as physicochemical. The note with it: aqueous phosphate buffer, thermodynamic from solid, phosphate buffer pH 7.4, shake-flask, 25 °C, mean value and range, read-out: Sexp., therm., pH 7.4 (thermodynamic solubility). How it is done:
For determination of thermodynamic solubility an aqueous phosphate buffer at pH 7.4 with sodium chloride was used. The buffer was prepared by dissolving Na2HPO4 × 2 H2O (298 mg), KH2PO4 (19 mg) and NaCl (800 mg) in water (100 mL). The pH was adjusted to 7.4 by addition of aq. hydrochloric acid (3 mol/L). The thermodynamic solubility was determined using a shake-flask method with quantification by a buffer-HPLC method. […] The mixtures were shaken at 25 °C and 400 rpm for 24 and 48 h (IKA KS 3000 ic control, IKA-Werke, Staufen, Germany). For each time (24 and 48 h) two independent measurements at two different detection wavelengths (254 and 280 nm) were determined. After 24 h and 48 h the mixtures were inspected for remaining solids. The concentrations in the resulting saturated solutions were quantified by isocratic HPLC with external standard calibration. […] For calibration, a stock solution of the test compounds in DMSO was prepared and diluted with DMSO to suitable concentrations. The AUC at the wavelength 254 nm and 280 nm was used for quantification.

The next data set concerns MAO-A. Also noted: method as in PMID 15010457, PMID 20981014. The note with it: cited from earlier work.
The target of data set [3] is T1, DYRK1A (Homo sapiens, UniProt Q13627). Also noted: method as in PMID 25264830, PMID 27766861. The note with it: cited from earlier work.
The test system of a further data set is DYRK1B. Also noted: method as in PMID 25264830, PMID 27766861. The note with it: cited from earlier work.
Data set [4] concerns CDK1. Also noted: method as in Falke et al. [34]. The note with it: radiometric; ref Falke et al. [34]; cited from earlier work.
The next data set concerns the target CK1. The experiment in a line: Protein kinase assay, radiometric. The data set is classed as biochemical. The note with it: dose response curves, triplicates. How it is done:
(§2) The new compounds 11–16 were tested on an array of protein kinases of the CMGC family. First, the kinases were incubated with 10 µM solutions of the test compounds and the residual activities compared to controls were measured. The IC50 values of promising compounds were then determined from concentration-response curves (Table 1).
as §1

The next data set deals with CDK5 (Homo sapiens, UniProt Q00535). The experiment in a line: Protein kinase assay, radiometric. The data set is classed as biochemical. The note with it: dose response curves, triplicates. On the procedure:
as §2, §1

The target in data set [5] is CDK1. The experiment in a line: Protein kinase assay, radiometric. The data set is classed as biochemical. The note with it: dose response curves, triplicates. On the procedure: as §2, §1
For the next data set, the target named is CDK9 (Homo sapiens, UniProt P50750). The experiment in a line: Protein kinase assay, radiometric. The data set is classed as biochemical. The note with it: dose response curves, triplicates. On the procedure: as §2, §1
Sequence of CDK9 (P50750 whole entry, species assumed): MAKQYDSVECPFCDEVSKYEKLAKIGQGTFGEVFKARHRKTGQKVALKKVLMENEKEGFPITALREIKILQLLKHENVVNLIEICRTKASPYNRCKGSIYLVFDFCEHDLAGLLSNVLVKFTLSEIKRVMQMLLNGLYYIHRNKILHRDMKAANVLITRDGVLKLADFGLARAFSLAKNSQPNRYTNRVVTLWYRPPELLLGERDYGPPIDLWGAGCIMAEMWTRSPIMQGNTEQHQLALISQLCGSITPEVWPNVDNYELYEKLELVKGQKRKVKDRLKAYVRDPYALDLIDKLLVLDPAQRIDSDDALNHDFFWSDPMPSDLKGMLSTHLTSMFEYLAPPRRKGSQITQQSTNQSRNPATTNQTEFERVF
Sequence of CDK9 (O60563 whole entry partner, species assumed): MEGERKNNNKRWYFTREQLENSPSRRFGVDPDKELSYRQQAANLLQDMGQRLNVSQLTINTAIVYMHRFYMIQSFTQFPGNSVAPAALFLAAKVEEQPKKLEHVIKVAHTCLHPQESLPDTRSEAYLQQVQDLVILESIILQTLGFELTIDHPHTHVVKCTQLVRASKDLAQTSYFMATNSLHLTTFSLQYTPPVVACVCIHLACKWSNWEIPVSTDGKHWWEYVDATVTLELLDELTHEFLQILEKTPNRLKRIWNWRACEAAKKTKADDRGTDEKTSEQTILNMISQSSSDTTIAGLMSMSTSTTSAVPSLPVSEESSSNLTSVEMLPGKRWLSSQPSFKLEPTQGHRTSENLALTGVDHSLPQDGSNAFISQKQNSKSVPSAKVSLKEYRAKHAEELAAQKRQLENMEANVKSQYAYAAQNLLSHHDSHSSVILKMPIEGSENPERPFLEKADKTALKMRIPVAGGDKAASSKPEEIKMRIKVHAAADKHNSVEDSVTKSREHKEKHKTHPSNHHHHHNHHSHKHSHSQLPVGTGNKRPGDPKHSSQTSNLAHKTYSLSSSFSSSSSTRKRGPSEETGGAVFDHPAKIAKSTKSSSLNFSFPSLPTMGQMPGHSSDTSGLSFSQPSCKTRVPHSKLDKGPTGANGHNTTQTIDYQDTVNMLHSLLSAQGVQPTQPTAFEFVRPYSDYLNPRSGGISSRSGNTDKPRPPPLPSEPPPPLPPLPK
Data set [6] deals with T1, DYRK1A. The experiment in a line: Protein kinase assay, radiometric. The data set is classed as biochemical. The note with it: dose response curves, triplicates. On the procedure:
as §2, §1

The next data set deals with CLK1 (Mus musculus, UniProt P22518). Description: Protein kinase assay, radiometric. The data set is classed as biochemical. The note with it: dose response curves, triplicates. How it is done: as §2, §1
Sequence of CLK1 (P22518 whole entry): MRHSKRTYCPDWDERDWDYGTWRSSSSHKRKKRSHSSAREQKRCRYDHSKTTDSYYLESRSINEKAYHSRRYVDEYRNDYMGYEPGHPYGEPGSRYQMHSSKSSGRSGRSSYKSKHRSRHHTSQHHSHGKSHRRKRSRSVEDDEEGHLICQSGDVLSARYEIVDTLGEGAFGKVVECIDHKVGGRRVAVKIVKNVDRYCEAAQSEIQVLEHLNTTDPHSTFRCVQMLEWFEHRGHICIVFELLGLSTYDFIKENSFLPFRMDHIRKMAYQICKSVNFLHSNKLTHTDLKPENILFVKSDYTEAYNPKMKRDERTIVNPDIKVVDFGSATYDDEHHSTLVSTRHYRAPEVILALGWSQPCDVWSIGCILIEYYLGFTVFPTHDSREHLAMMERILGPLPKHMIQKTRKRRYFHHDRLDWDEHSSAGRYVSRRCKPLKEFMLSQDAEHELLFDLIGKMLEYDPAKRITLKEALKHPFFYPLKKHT
The target in another data set is CDK2 (Homo sapiens, UniProt P24941). The experiment in a line: Protein kinase assay, radiometric. The data set is classed as biochemical. The note with it: dose response curves, triplicates. On the procedure:
as §2, §1

The target in the next data set is GSK-3. Description: Protein kinase assay, radiometric. The data set is classed as biochemical. The note with it: dose response curves, triplicates. On the procedure: as §2, §1

Values after ≈ are worked out from the molar mass of the structure shown. Where a name gives a salt, the structure may show the parent alone. Read-outs that look alike come from different tables or passages of the source.

Sequence of CDK5 (Q00535 whole entry, species assumed): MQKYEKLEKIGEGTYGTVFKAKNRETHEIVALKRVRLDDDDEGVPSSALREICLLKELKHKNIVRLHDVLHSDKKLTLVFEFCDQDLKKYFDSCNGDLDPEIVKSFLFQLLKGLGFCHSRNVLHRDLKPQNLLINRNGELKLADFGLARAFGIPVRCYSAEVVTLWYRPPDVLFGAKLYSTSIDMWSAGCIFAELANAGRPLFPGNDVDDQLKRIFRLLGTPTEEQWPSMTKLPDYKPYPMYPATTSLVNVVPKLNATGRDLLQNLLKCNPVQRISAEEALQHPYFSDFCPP
Sequence of CDK5 (Q15078 99-307 partner limits assumed, species assumed): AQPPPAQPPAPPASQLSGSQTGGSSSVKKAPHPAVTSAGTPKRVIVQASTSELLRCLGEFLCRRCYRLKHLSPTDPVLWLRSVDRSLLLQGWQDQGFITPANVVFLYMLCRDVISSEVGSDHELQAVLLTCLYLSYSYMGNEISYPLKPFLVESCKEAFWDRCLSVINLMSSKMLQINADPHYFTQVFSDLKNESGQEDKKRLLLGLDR

Broadly, the kinetic solubility is the concentration staying in solution when a stock, usually in DMSO, is diluted into the medium. By IC50 is commonly meant the midpoint of a concentration-inhibition curve. By solubility (thermodynamic) is commonly meant the concentration in solution at equilibrium with solid. Consider `O=C1c2c([nH]c3c(Cl)cccc23)CCC1CN1CCCCC1` (racemic) [compound 16, (R,S)-8-Chloro-3-(piperidin-1-ylmethyl)-1,2,3,9-tetrahydro-4H-carbazol-4-one hydrochloride], for which the kinetic solubility in [1] was found to be 2310 µM. The “DYRK1A inhibitory activity (in words)” value at RnDYRK1A-kd was “complete loss of DYRK1A inhibitory activity”. At RnDYRK1A-kd (ADP-Glo assay kit, 10 µM ATP, read-out: IC50 DYRK1A), the IC50 is more than 10000 nM. Further, in data set [2], the thermodynamic solubility amounted to 13600 µM.
Regarding `O=C1c2c([nH]c3c(Cl)cccc23)CCC1CN1CCOCC1` (racemic) [compound 27, (R,S)-8-Chloro-3-(morpholinomethyl)-1,2,3,9-tetrahydro-4H-carbazol-4-one hydrochloride], the “DYRK1A inhibitory activity (in words)” value on RnDYRK1A-kd was “inactive”.
The same measure, in the same setting: under `CN(C)CC1CCc2[nH]c3c(Cl)cccc3c2C1=O` (racemic) [compound 28, (R,S)-8-Chloro-3-[(dimethylamino)methyl]-1,2,3,9-tetrahydro-4H-carbazol-4-one hydrochloride] stands “inactive”.
Take `CCN1/C(=C/C(C)=O)Sc2ccc(O)cc21` [compound 4]: the MAO-A inhibition entry with MAO-A is listed as “no MAO-A inhibition”.
For the compound `COC(=N)c1nc2ccc3ncnc(Nc4ccc(Cl)cc4Cl)c3c2s1` [compound 7], the “Activity on DYRK1A” value at DYRK1A [3] is given as “subnanomolar”. The “Activity on DYRK1B” value in the data set on DYRK1B is listed as “subnanomolar”.
As to `O=C(O)c1nc2ccccc2c2[nH]c3c(I)cccc3c12` [compound 10, reference compound], in data set [1], the solubility (kinetic) turned out to be 5.28 µM (≈ 2.05 µg/mL). In addition, the solubility (thermodynamic) in data set [2] is less than 5 µM. In addition, in the data set with CDK1 [4], the concentration for half-maximal inhibition (IC50) is more than 10000 nM.
As for `O=c1ccccc2[nH]c3c(Cl)cccc3c12` [compound 11, 4-Chlorocyclohepta[b]indol-10(5H)-one], the kinetic solubility in data set [1] was determined as 26.1 µM (≈ 5.99 µg/mL). In addition, the “Improvement of kinetic solubility compared to 10” value in data set [1] (phosphate buffer pH 7.4) is “fivefold improved solubility”. Further, the thermodynamic solubility in data set [2] was less than 5 µM. Besides, the half-inhibitory concentration (IC50) against CK1 is more than 10000 nM; at CDK5 it was more than 10000 nM; at CDK1 [5], more than 10000 nM; against CDK9 it was more than 10000 nM; at DYRK1A [6], 200 nM; on CLK1, 170 nM. The IC50 against CDK2 and at GSK-3 was more than 10000 nM each time.
`O=C1CCc2[nH]c3c(Cl)cccc3c21` [compound 12, 5-Chloro-3,4-dihydrocyclopenta[b]indol-1(2H)-one]: the 50% inhibitory concentration (IC50) was more than 10000 nM on CK1; more than 10000 nM at CDK5; more than 10000 nM at CDK1 [5]; more than 10000 nM against CDK9; 710 nM against DYRK1A [6]; 890 nM on CLK1. The IC50 against CDK2 and on GSK-3 was more than 10000 nM in each case.
In the case of `O=C1CCCc2[nH]c3c(Cl)cccc3c21` [compound 13, 8-Chloro-1,2,3,9-tetrahydro-4H-carbazol-4-one], the IC50 was more than 10000 nM at CK1; 8200 nM at CDK5; 1600 nM at DYRK1A [6]; 300 nM against CLK1; 4400 nM at GSK-3.
Take `O=C1NCCc2[nH]c3c(Cl)cccc3c21` [compound 14, 6-Chloro-2,3,4,5-tetrahydro-1H-pyrido[4,3-b]indol-1-one]: the half-inhibitory concentration (IC50) is 3600 nM against CK1; 810 nM on CDK5; 1200 nM on CDK1 [5]; 880 nM at CDK9; 190 nM against DYRK1A [6]; 120 nM against CLK1. Further, the results for the IC50 at CDK2 and against GSK-3 were 1700 nM and 2700 nM, respectively.
In the case of `O=C1NCCCc2[nH]c3c(Cl)cccc3c21` [compound 15, 7-Chloro-3,4,5,6-tetrahydroazepino[4,3-b]indol-1(2H)-one], the IC50 worked out at 4200 nM against CK1; 2500 nM at CDK5; 7000 nM at CDK1 [5]; 2200 nM against CDK9; 2200 nM at DYRK1A [6]; 320 nM at CLK1. The results for the half-inhibitory concentration (IC50) on CDK2 and on GSK-3 were 2500 nM and more than 10000 nM, respectively.
